Source: ChEMBL document CHEMBL1150748, “Isolation of the antimicrobial alkaloid stemmadenine from Iraqi Rhazya stricta” (1988)
≈ marks a conversion by molar mass, not a printed value.

What was measured:
Type in all cases: functional
Pseudomonas aeruginosa = assay: Antimicrobial activity against Pseudomonas aeruginosa ATCC 9027
Escherichia coli = assay: Antimicrobial activity against Escherichia coli ATCC 8739
Staphylococcus aureus = assay: Antimicrobial activity against Staphylococcus aureus ATCC 6538
Candida albicans = assay: Antimicrobial activity against Candida albicans ATCC 10231

| Compound | MIC (Pseudomonas aeruginosa) | MIC (Escherichia coli) | MIC (Staphylococcus aureus) | MIC (Candida albicans) |
| --- | --- | --- | --- | --- |
| CCCCCCCCCCCCC[N+](C)(C)Cc1ccccc1.[Cl-] [BENZALKONIUM CHLORIDE] | 8 µg/mL | 2.8 µg/mL | 0.32 µg/mL | 1.8 µg/mL |
| CC(=O)O.CC(=O)O.NC(=N\CCCCCC/N=C(N)/N=C(\N)Nc1ccc(Cl)cc1)/N=C(\N)Nc1ccc(Cl)cc1 [CHLORHEXIDINE DIACETATE] | 1.5 µg/mL | 0.4 µg/mL | 0.2 µg/mL | 4.5 µg/mL |
| C/C=C1/CN2CCc3c([nH]c4ccccc34)[C@@](CO)(C(=O)OC)[C@@H]1CC2 [STEMMADENINE] | 7.5 µg/mL (≈ 21.2 µM) | 1.25 µg/mL (≈ 3.53 µM) | 5 µg/mL (≈ 14.1 µM) | 37.5 µg/mL (≈ 106 µM) |
| THIMEROSAL | 1.5 µg/mL | 0.6 µg/mL | 0.2 µg/mL | 0.1 µg/mL |
